The target in one assay is T1, Aurora-2 (Aurora A) (Homo sapiens, UniProt O14965).
T1 sequence (O14965 1-403): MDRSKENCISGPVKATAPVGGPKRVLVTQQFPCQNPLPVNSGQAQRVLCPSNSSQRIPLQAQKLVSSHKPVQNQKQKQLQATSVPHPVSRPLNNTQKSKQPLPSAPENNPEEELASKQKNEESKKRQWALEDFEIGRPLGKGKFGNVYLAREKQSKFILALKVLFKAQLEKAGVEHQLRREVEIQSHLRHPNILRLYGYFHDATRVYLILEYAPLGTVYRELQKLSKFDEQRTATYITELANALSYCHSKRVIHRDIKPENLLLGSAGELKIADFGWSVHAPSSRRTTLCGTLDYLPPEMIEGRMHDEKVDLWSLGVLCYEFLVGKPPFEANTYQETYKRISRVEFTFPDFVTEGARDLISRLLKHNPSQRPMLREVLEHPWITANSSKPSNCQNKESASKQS
The assay is described as follows: Aurora-2 (Aurora A) inhibition, coupled enzyme assay. The format is biochemical. To be noted: 400 μM ATP, 570 μM Kemptide, 40 nM Aurora-2, 30° C. Here is the method:
Compounds were screened for their ability to inhibit Aurora-2 using a standard coupled enzyme assay (Fox et al., Protein Sci., (1998) 7, 2249). Assays were carried out in a mixture of 100 mM Hepes (pH7.5), 10 mM MgCl2, 1 mM DTT, 25 mM NaCl, 2.5 mM phosphoenolpyruvate, 300 μM NADH, 30 μg/ml pyruvate kinase and 10 μg/ml lactate dehydrogenase. Final substrate concentrations in the assay were 400 μM ATP (Sigma Chemicals) and 570 μM peptide (Kemptide, American Peptide, Sunnyvale, Calif.). Assays were carried out at 30° C. and in the presence of 40 nM Aurora-2.
An assay stock buffer solution was prepared containing all of the reagents listed above, with the exception of Aurora-2 and the test compound of interest. 55 μl of the stock solution was placed in a 96 well plate followed by addition of 2 μl of DMSO stock containing serial dilutions of the test compound (typically starting from a final concentration of 7.5 μM). The plate was preincubated for 10 minutes at 30° C. and the reaction initiated by addition of 10 μl of Aurora-2. Initial reaction rates were determined with a Molecular Devices SpectraMax Plus plate reader over a 10 minute time course. IC50 and Ki data were calculated from non-linear regression analysis using the Prism software package (GraphPad Prism version 3.0cx for Macintosh, GraphPad Software, San Diego Calif., USA).

A further assay deals with Aurora-1 (Aurora B) (Homo sapiens, UniProt Q96GD4). The assay is described as follows: Aurora-1 (Aurora B) inhibition assay (radiometric). The format is biochemical. Particulars: 800 μM [γ-33P]-ATP, Kemptide, 25° C., 3 hours. On the procedure:
An assay buffer solution was prepared which consisted of 25 mM HEPES (pH 7.5), 10 mM MgCl2, 0.1% BSA and 10% glycerol. A 22 nM Aurora-B solution, also containing 1.7 mM DTT and 1.5 mM Kemptide (LRRASLG), was prepared in assay buffer. To 22 μL of the Aurora-B solution, in a 96-well plate, was added 2 μl of a compound stock solution in DMSO and the mixture allowed to equilibrate for 10 minutes at 25° C. The enzyme reaction was initiated by the addition of 16 μl stock [γ-^33P]-ATP solution (˜20 nCi/μL) prepared in assay buffer, to a final assay concentration of 800 μM. The reaction was stopped after 3 hours by the addition of 16 μL 500 mM phosphoric acid and the levels of ^33P incorporation into the peptide substrate were determined by the following method.
A phosphocellulose 96-well plate (Millipore, Cat no. MAPHNOB50) was pre-treated with 100 μL of a 100 mM phosphoric acid prior to the addition of the enzyme reaction mixture (40 μL). […] Levels of non-enzyme catalyzed background radioactivity were determined by adding 16 μL of the 500 mM phosphoric acid to control wells, containing all assay components (which acts to denature the enzyme), prior to the addition of the [γ-^33P]-ATP solution. Levels of enzyme catalyzed ^33P incorporation were calculated by subtracting mean background counts from those measured at each inhibitor concentration. […]

pKi: −log10 of the molar value.

Aurora-1 (Aurora B), sequence (Q96GD4 whole entry): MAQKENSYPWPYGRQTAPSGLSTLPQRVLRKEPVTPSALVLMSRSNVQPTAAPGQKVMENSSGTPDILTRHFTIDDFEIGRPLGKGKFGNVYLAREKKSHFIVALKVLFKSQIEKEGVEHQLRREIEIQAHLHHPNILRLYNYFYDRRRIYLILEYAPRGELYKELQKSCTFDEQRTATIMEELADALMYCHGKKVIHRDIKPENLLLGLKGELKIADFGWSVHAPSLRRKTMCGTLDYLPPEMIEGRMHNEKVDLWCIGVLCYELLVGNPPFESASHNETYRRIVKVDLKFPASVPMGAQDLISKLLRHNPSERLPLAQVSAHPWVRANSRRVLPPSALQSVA

As for `Cc1cnc(Nc2cc(N3CC[C@H](F)C3)cc(Sc3ccc(NC(=O)C4CC4)cc3)n2)s1` [Compound 1, (S)-N-(4-(4-(3-Fluoropyrrolidin-1-yl)-6-(5-methylthiazol-2-ylamino)pyridin-2-ylthio)phenyl)cyclopropanecarboxamide], the pKi on Aurora-2 (Aurora A) was > 7.00; at Aurora-1 (Aurora B) it was > 6.00.
The matching figures for `Cc1cc(Nc2cc(N3CC[C@H](F)C3)cc(Sc3ccc(NC(=O)C4CC4)cc3)n2)[nH]n1` [Compound 2, (S)-N-(4-(4-(3-Fluoropyrrolidin-1-yl)-6-(3-methyl-1H-pyrazol-5-ylamino)pyridin-2-ylthio)phenyl)cyclopropanecarboxamide]: > 7.00 and > 6.00.

These data come from patent publication US20110060013A1, “THIAZOLES AND PYRAZOLES USEFUL AS KINASE INHIBITORS” (VERTEX PHARMACEUTICALS INCORPORATED, priority 2007, published 2011).
